Laboratory results published in patent publication US8268355B2, “Silica particle comprising an organolanthanide compound, preparation process therefor and uses thereof” (Commissariat a l'Energie Atomique, priority 2008, dated 2012).

Experiments:
[1] = gadolinium complexes of dtpa; cited from earlier work
[2] = Stability of the Gd complex (pGd) by UV-visible spectrophotometry in HEPES buffer pH 7.4; format: physicochemical; conditions: pH 7.4, HEPES, [M]total=1 mM, [bpatcn]total=10 mM
Protocol: Appreciably, the interaction between the lanthanide ions and the ligand was monitored by UV-visible spectrophotometry for a representative ion of intermediate size, namely Gd in dilute aqueous solutions, buffered with HEPES at pH 7.4. The value of pGd (pM=−log [M]free at pH 7.4, [M]total=1 mM and [bpatcn]total=10 mM), which allows a simple and direct comparison of the stabilities of the complexes under physiological conditions, found for thqtcn-SO3^6−(19) is similar to the value reported for the gadolinium complexes of diethylenetriaminepentaacetic acid (dtpa) (pGd=19.6), which are widely acknowledged as non-toxic.

[3] = Potentiometric titration of the ligand with KOH: deprotonation constants; format: physicochemical; conditions: titration with KOH in KCl 0.1M, 298 K
From the text: (§1) The three sulfonates are fully deprotonated under the experimental conditions used. The deprotonation constants of H9thqtcn-SO3^3+ are defined as Kai=[H9-iL]^(1-i) [H]^+/[H8-iL]^(2-i)+. Analysis of the potentiometric curves enabled precise determination of 6 deprotonation constants (pKa8=2.9(2), pKa7=5.34(5), pKa6=8.01(8), pKa5=8.78(1), pKa4=8.98(4), pKa3=10.25(2)), whereas it was possible only to obtain the sum pKa1+pKa2=(22.51(3)).

Solubility observations = format: physicochemical; conditions: aqueous, potentiometric titration conditions
From the text: as §1
The elemental analyses of all the complexes are compatible with the presence of analytically pure [Ln(thqtcn)] species. These complexes are insoluble in all the commonly used laboratory solvents.
As hoped, this ligand results in Ln(III) complexes that are water-soluble at physiological pHs.

Row | pGd (pM=-log [M]free) [2] | pKa3 [3] | pKa4 [3] | pKa5 [3] | pKa6 [3] | pKa7 [3] | pKa8 [3] | sum pKa1+pKa2 [3] | solubility of the ligand (Solubility observations) | Compound | pGd (reported value) [1]
1 |  |  |  |  |  |  |  |  |  | O=C(O)CN(CCN(CC(=O)O)CC(=O)O)CCN(CC(=O)O)CC(=O)O [dtpa, diethylenetriaminepentaacetic acid] | 19.6
2 | 19 | 10.25(2) | 8.98(4) | 8.78(1) | 8.01(8) | 5.34(5) | 2.9(2) | 22.51(3) | high solubility | 1,4,7-tris[2-(5-sulfo-8-hydroxyquinolinyl)methyl]-1,4,7-triaza-cyclononane [H6thqtcn-SO3] | 
